How the values were obtained:
[1] = target: T1, p38 MAPKα isoform (MAPK14) (Homo sapiens (Human), UniProt Q16539); assay: p38 MAPKα enzyme inhibition (FRET, Z-LYTE), Method 1; format: biochemical; conditions: Method 1 (Table 4a1)
GSK 3α = GSK 3α (Homo sapiens (Human), UniProt P49840); assay: GSK 3α enzyme inhibition (FRET, Z-LYTE), Method 2; format: biochemical; conditions: Method 2, different laboratory (Table 4a2); read-out: IC50 Values for Enzyme Inhibition GSK3α
Protocol: (§1) The enzyme inhibitory activities of compounds disclosed herein are determined by FRET using synthetic peptides labelled with both donor and acceptor fluorophores (Z-LYTE, Invitrogen Ltd., Paisley, UK).
The inhibitory activities of compounds of the invention against the GSK 3α enzyme isoform (Invitrogen), are evaluated by determining the level of activation/phosphorylation of the target peptide. The GSK3-α protein (500 ng/mL, 2.5 μL) is mixed with the test compound (2.5 μL at either 4 μg/mL, 0.4 μg/mL, 0.04 μg/mL, or 0.004 μg/mL) for 2 hr at RT. The FRET peptide (8 μM, 2.5 μL), which is a phosphorylation target for GSK3α, and ATP (40 μM, 2.5 μL) are then added to the enzyme/compound mixture and the resulting mixture incubated for 1 hr. Development reagent (protease, 5 μL) is added for 1 hr prior to detection in a fluorescence microplate reader (Varioskan® Flash, ThermoFisher Scientific).
(§2) In all cases, the site-specific protease cleaves non-phosphorylated peptide only and eliminates the FRET signal. Phosphorylation levels of each reaction are calculated using the ratio of coumarin emission (donor) over fluorescein emission (acceptor), for which high ratios indicate high phosphorylation and low ratios indicate low phosphorylation levels.

[2] = system: Differentiated U937 cells; assay: (l) Cell viability: MTT assay; format: cell-based, human; conditions: 1 μg/mL
Outline: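 MTT read-out (1 h, absorbance 550 nm) on d-U937 cells after pre-incubation with 1 or 10 μg/mL compound under two regimes: 4 h, 5% FCS, or 24 h, 10% FCS RPMI1640. Values are percent loss of viability relative to vehicle (0.5% DMSO), so increases are reported as negative.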

[3] = target: T1, p38 MAPKα isoform (MAPK14); assay: p38 MAPKα enzyme inhibition (FRET, Z-LYTE), Method 2; format: biochemical; conditions: Method 2, different laboratory (Table 4a2)
Protocol: as §1
The inhibitory activities of test compounds against the p38 MAPKα isoform (MAPK14: Invitrogen), are evaluated indirectly by determining the level of activation/phosphorylation of the down-stream molecule, MAPKAP-K2. The p38 MAPKα protein (80 ng/mL, 2.5 μL) is mixed with the test compound (2.5 μL of either 4 μg/mL, 0.4 μg/mL, 0.04 μg/mL or 0.004 μg/mL) for 2 hr at RT. […] The mixture is incubated for 1 hr at RT. Development reagent (protease, 5 μL) is added for 1 hr prior to detection in a fluorescence microplate reader (Varioskan® Flash, ThermoFisher Scientific).
as §2

[4] = system: Intestinal mucosa biopsies from the inflamed regions of the colon of IBD patients; assay: (h) Human biopsy assay (cytokine release); format: cell-based
Protocol: Intestinal mucosa biopsies are obtained from the inflamed regions of the colon of IBD patients. The biopsy material is cut into small pieces (2-3 mm) and placed on steel grids in an organ culture chamber at 37° C. in a 5% CO2/95% O2 atmosphere in serum-free media. DMSO control or test compounds at the desired concentration are added to the tissue and incubated for 24 hr in the organ culture chamber. The supernatant is harvested for determination of IL-6, IL-8, […] and TNFα levels by R&D ELISA.

BDF1 mice = assay: (C) TNBS-induced colitis in mice; format: in vivo, mouse; set-up: TNBS Ulcer grade / TNBS LP inflammation: scale not given here; conditions: 2 days; for TNBS LP inflammation / TNBS Ulcer grade: mice
Protocol: Non-fasted, 10-12 week old, male BDF1 mice are dosed by oral gavage twice daily with either vehicle (5 mL/kg), reference item (Budesonide 2.5 mg/kg) or test compound (1, 5 or 50 mg/kg) one day before (Day −1) stimulation of the inflammatory response by treatment with 2,4,6-trinitrobenzenesulphonic acid (TNBS) (15 mg/mL in 50% ethanol/50% saline). On Day 0 of the study TNBS (200 μL) is administered intra-colonically via a plastic catheter followed by BID dosing of the vehicle, reference or test compound for 2 or 4 days. During the study animals are weighed every day and stool observations are made and recorded as a score, based on stool consistency. At the time of sacrifice on Day 2 (or Day 4) the large intestine is removed and the length and weight recorded. Sections of the colon are taken for either MPO analysis to determine neutrophil infiltration or for histopathology involving scoring to determine disease severity.

[5] = system: β-catenin in d-U937 cells; assay: (m) Accumulation of β catenin in d-U937 cells; format: cell-based, human
Protocol: U937 cells, a human monocytic cell line, are differentiated into macrophage-type cells by incubation with PMA; (100 ng/mL) for between 48 to 72 hr. The cells are then incubated with either final concentrations of test compound or vehicle for 18 hr. The induction of β-catenin by the test compounds is stopped by replacing the media with 4% formaldehyde solution. Endogenous peroxide activity is neutralised by incubating with quenching buffer (100 μL, 0.1% sodium azide, 1% H2O2 in PBS with 0.05% Tween-20) for 20 min. The cells are washed with washing buffer (200 μL; PBS containing 0.05% Tween-20) and incubated with blocking solution (200 μL; 5% milk in PBS) for 1 hr, re-washed with washing buffer (200 μL) and then incubated overnight with anti-β-catenin antibody solution (50 μL) in 1% BSA/PBS (BD, Oxford, UK).
After washing with washing buffer (3×200 μL; PBS containing 0.05% Tween-20), cells are incubated with an HRP-conjugated secondary antibody solution (100 μL) in 1% BSA/PBS (Dako, Cambridge, UK) and the resultant signal is determined colourimetrically (OD: 450 nm with a reference wavelength of 655 nm) using TMB substrate (50 μL; R&D Systems, Abingdon, UK). This reaction is stopped by addition of 1N H2SO4 solution (50 μL). Cells are then washed with washing buffer and 2% crystal violet solution (50 μL) is applied for 30 min. After washing with washing buffer (3×200 μL), 1% SDS (100 μL) is added to each well and the plates are shaken lightly for 1 hr prior to measuring the absorbance at 595 nm (Varioskan® Flash, Thermo-Fisher Scientific).
The measured OD450-655 readings are corrected for cell number by dividing the OD450-655 by the OD595 readings. […] A signal less than 0.15 (15%) of that observed for the standard control is designated as “-ve”.

T1 sequence (Q16539 whole entry, canonical isoform): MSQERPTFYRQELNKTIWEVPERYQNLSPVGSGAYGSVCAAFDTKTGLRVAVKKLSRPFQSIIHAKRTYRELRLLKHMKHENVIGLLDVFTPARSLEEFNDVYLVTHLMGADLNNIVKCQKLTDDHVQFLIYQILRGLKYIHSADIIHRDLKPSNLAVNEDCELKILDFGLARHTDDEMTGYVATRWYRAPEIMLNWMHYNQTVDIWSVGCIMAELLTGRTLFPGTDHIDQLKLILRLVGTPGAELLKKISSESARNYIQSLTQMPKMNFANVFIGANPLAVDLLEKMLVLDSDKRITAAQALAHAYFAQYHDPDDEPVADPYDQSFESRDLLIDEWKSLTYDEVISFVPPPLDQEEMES
Chain of GSK 3α (P49840 whole entry): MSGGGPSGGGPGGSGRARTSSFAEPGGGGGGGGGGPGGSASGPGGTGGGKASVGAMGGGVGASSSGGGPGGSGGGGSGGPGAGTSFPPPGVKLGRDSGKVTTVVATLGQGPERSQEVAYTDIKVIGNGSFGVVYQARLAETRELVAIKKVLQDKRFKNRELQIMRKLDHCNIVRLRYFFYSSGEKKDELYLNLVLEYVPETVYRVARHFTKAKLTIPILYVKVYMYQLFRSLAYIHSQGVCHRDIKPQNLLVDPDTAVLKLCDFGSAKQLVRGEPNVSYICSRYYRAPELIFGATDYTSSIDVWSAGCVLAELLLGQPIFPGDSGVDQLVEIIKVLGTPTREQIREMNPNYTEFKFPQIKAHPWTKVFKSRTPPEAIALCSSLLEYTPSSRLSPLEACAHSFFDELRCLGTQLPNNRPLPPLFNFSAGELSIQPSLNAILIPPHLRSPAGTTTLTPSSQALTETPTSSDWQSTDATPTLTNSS

## CCc1cc(NC(=O)Nc2ccc(Oc3ccnc(Nc4cc(OC)cc(C(=O)NCCN5CCOCC5)c4)n3)c3ccccc23)n(-c2ccc(C)cc2)n1 [Example 49, 3-((4-((4-(3-(3-ethyl-1-(p-tolyl)-1H-pyrazol-5-yl)ureido)naphthalen-1-yl)oxy)pyrimidin-2-yl)amino)-5-methoxy-N-(2-morpholinoethyl)benzamide]
[1]
  IC50: 0.002 µM
GSK 3α
  IC50: 13.5 µM
[2]
  Cell viability at time point in d-U937 cells 4 h: −ve (−ve and +ve indicate that the value is below and above respectively, the no significant effect threshold, defined as 30% inhibition at 1 μg/mL at the time point indicated.)
  Cell viability at time point in d-U937 cells 24 h: −ve (−ve and +ve indicate that the value is below and above respectively, the no significant effect threshold, defined as 30% inhibition at 1 μg/mL at the time point indicated.)

## C#Cc1cc(Nc2nccc(Oc3ccc(NC(=O)Nc4cc(C(C)C)nn4-c4ccc(C)cc4)c4ccccc34)n2)cc(C(=O)NCCN2CCOCC2)c1 [Example 46, 3-ethynyl-5-((4-((4-(3-(3-isopropyl-1-(p-tolyl)-1H-pyrazol-5-yl)ureido)naphthalen-1-yl)oxy)pyrimidin-2-yl)amino)-N-(2-morpholinoethyl)benzamide]
[3]
  IC50: 0.041 µM
[4]; 1 μg/mL, DMSO control 100%
  Cytokine release from biopsies of UC patients IL-1b release: 35 ± 14%
  Cytokine release from biopsies of UC patients IL-6 release: 44 ± 38%
  Cytokine release from biopsies of UC patients IL-8 release: 49 ± 35%
[4]; added to biopsies in vitro
  cytokine release from biopsies from ulcerative colitis (UC) patients: markedly reduced IL-1b, IL-6 and IL-8 release
[2]
  Cell viability at time point in d-U937 cells 4 h: −ve (−ve and +ve indicate that the value is below and above respectively, the no significant effect threshold, defined as 30% inhibition at 1 μg/mL at the time point indicated.)
  Cell viability at time point in d-U937 cells 24 h: −ve (−ve and +ve indicate that the value is below and above respectively, the no significant effect threshold, defined as 30% inhibition at 1 μg/mL at the time point indicated.)
BDF1 mice; TNBS-induced colitis, dosed orally at 5 mg/kg
  histopathology analysis, in vivo model of colonic inflammation: significant activity
BDF1 mice; 1 mg/kg oral BID
  TNBS LP inflammation: 3.1 ± 0.6
  TNBS Ulcer grade: 3.4 ± 0.6
BDF1 mice; 5 mg/kg oral BID
  TNBS LP inflammation: 2.0 ± 0.5
  TNBS Ulcer grade: 2.4 ± 0.6

## COCCNC(=O)c1cc(Nc2nccc(Oc3ccc(NC(=O)Nc4cc(C(C)C)nn4-c4ccc(OC)cc4)c4ccccc34)n2)cc(OC)c1 [Example 11, 3-((4-((4-(3-(3-Isopropyl-1-(4-methoxyphenyl)-1H-pyrazol-5-yl)ureido)naphthalen-1-yl)oxy)pyrimidin-2-yl)amino)-5-methoxy-N-(2-methoxyethyl)benzamide]
[1]
  IC50: 0.025 µM
[3]
  IC50: 0.104 µM
[2]
  Cell viability at time point in d-U937 cells 4 h: −ve (−ve and +ve indicate that the value is below and above respectively, the no significant effect threshold, defined as 30% inhibition at 1 μg/mL at the time point indicated.)
  Cell viability at time point in d-U937 cells 24 h: −ve (−ve and +ve indicate that the value is below and above respectively, the no significant effect threshold, defined as 30% inhibition at 1 μg/mL at the time point indicated.)
[5]; 1 μg/mL test compound
  % β-catenin induction: −1%
[5]; 5 μg/mL test compound
  % β-catenin induction: 1%
[5]; 10 μg/mL test compound
  % β-catenin induction: 1%

## CCCC1O[C@@H]2C[C@H]3[C@@H]4CCC5=CC(=O)C=C[C@]5(C)[C@H]4[C@@H](O)C[C@]3(C)[C@]2(C(=O)CO)O1 (some centres unmarked) [Budesonide, reference compound]
BDF1 mice; 2.5 mg/kg oral BID
  TNBS LP inflammation: 2.5 ± 0.4
  TNBS Ulcer grade: 2.9 ± 0.6

## COc1cc(Nc2cc(Oc3ccc(NC(=O)Nc4cc(C(C)(C)C)nn4-c4ccc(C)cc4)c4ccccc34)ccn2)cc(C(=O)NCCN2CCOCC2)c1 [Example 1, 3-((4-((4-(3-(3-(tert-Butyl)-1-(p-tolyl)-1H-pyrazol-5-yl)ureido)naphthalen-1-yl)oxy)pyridin-2-yl)amino)-5-methoxy-N-(2-morpholinoethyl)benzamide]
[1]
  IC50: 0.04 µM
[3]
  IC50: 0.05 µM
[2]
  Cell viability at time point in d-U937 cells 4 h: −ve (−ve and +ve indicate that the value is below and above respectively, the no significant effect threshold, defined as 30% inhibition at 1 μg/mL at the time point indicated.)
  Cell viability at time point in d-U937 cells 24 h: −ve (−ve and +ve indicate that the value is below and above respectively, the no significant effect threshold, defined as 30% inhibition at 1 μg/mL at the time point indicated.)
[5]; 1 μg/mL test compound
  % β-catenin induction: −7%
[5]; 5 μg/mL test compound
  % β-catenin induction: −6%

## C#Cc1cc(Nc2nccc(Oc3ccc(NC(=O)Nc4cc(C(C)C)nn4-c4ccc(C)cc4)c(Cl)c3Cl)n2)cc(C(N)=O)c1 [Example 89, 3-((4-(2,3-Dichloro-4-(3-(3-isopropyl-1-(p-tolyl)-1H-pyrazol-5-yl)ureido)-phenoxy)pyrimidin-2-yl)amino)-5-ethynylbenzamide]
GSK 3α
  IC50: 15.3 µM

— US9701670B2, “Pyrazolyl-ureas as kinase inhibitors” (RESPIVERT LIMITED, priority 2013, dated 2017)
